Laboratory results from US12162893B2 (Erasca, Inc., priority 2020, dated 2024).

The compounds below were run against T1, mutant G12C K-RAS (Homo sapiens, UniProt P01116, G12C) (assay: covalent adduct formation (CAF) with mutant G12C K-RAS). Details: Table 6; 10 μM, 1 h.
T1 construct: made in house; host or cells: E. coli BL21
Format: binding
Experimental: Embodiments disclosed herein are further illustrated by the following examples in Tables 1-4 and the Examples hereinbelow. The Tables indicate the compound number, structure, the observed mass spectral molecular weight peak, and covalent adduct formation (CAF) with a mutant G12C K-RAS after 60 minutes at a concentration of 10 micromolar.

| Structure (SMILES) | % CAF @ 10 μM,1 h [%] |
| --- | --- |
| C=CC(=O)N1C[C@H](C)N(c2nc(=O)n3c4c(c(-c5c(C)ccc6[nH]ncc56)c(Cl)cc24)OC[C@@H]3CCCN2C3CCC2COC3)C[C@H]1C [Example 281, (3S,10S)-3-(3-(3-oxa-8-azabicyclo[3.2.1]octan-8-yl)propyl)-7-((2S,5R)-4-acryloyl-2,5-dimethylpiperazin-1-yl)-9-chloro-10-(5-methyl-1H-indazol-4-yl)-2,3-dihydro-5H-[1,4]oxazino[2,3,4-ij]quinazolin-5-one] | 0 |
| C=CC(=O)N1C[C@H](C)N(c2nc(=O)n3c4c(c(-c5c(C)ccc6[nH]ncc56)c(Cl)cc24)OC[C@@H]3CCCN2C3CCC2COC3)C[C@H]1C [Example 282, (3S,10R)-3-(3-(3-oxa-8-azabicyclo[3.2.1]octan-8-yl)propyl)-7-((2S,5R)-4-acryloyl-2,5-dimethylpiperazin-1-yl)-9-chloro-10-(5-methyl-1H-indazol-4-yl)-2,3-dihydro-5H-[1,4]oxazino[2,3,4-ij]quinazolin-5-one] | 86 |
| C=CC(=O)N1C[C@H](C)N(c2nc(=O)n3c4c(c(-c5ccc(F)cc5F)c(Cl)cc24)OC[C@H]3CCCN2CCN(C)C(=O)C2)C[C@H]1C [Example 283, (3R)-7-((2S,5R)-4-acryloyl-2,5-dimethylpiperazin-1-yl)-9-chloro-10-(2,4-difluorophenyl)-3-(3-(4-methyl-3-oxopiperazin-1-yl)propyl)-2,3-dihydro-5H-[1,4]oxazino[2,3,4-ij]quinazolin-5-one] | 92.4 |
| C=CC(=O)N1C[C@H](C)N(c2nc(=O)n3c4c(c(-c5ccc(F)cc5F)c(Cl)cc24)OC[C@H]3CCCN(C)CC(F)(F)F)C[C@H]1C [Example 284, (3R)-7-((2S,5R)-4-acryloyl-2,5-dimethylpiperazin-1-yl)-9-chloro-10-(2,4-difluorophenyl)-3-(3-(methyl(2,2,2-trifluoroethyl)amino)propyl)-2,3-dihydro-5H-[1,4]oxazino[2,3,4-ij]quinazolin-5-one] | 92.4 |
| C=CC(=O)N1C[C@H](C)N(c2nc(=O)n3c4c(c(-c5ccc(F)cc5F)c(Cl)cc24)OC[C@H]3CN2C[C@H]3CC[C@@H](C2)N3C)C[C@H]1C [Example 285, (3R)-7-((2S,5R)-4-acryloyl-2,5-dimethylpiperazin-1-yl)-9-chloro-10-(2,4-difluorophenyl)-3-(((1R,5S)-8-methyl-3,8-diazabicyclo[3.2.1]octan-3-yl)methyl)-2H-[1,4]oxazino[2,3,4-ij]quinazolin-5(3H)-one] | 86.2 |
| C=CC(=O)N1C[C@H](C)N(c2nc(=O)n3c4c(c(-c5ccc(F)cc5F)c(Cl)cc24)OC[C@@H]3CN2C[C@H]3CC[C@@H](C2)N3C)C[C@H]1C [Example 286, (3S)-7-((2S,5R)-4-acryloyl-2,5-dimethylpiperazin-1-yl)-9-chloro-10-(2,4-difluorophenyl)-3-(((1R,5S)-8-methyl-3,8-diazabicyclo[3.2.1]octan-3-yl)methyl)-2H-[1,4]oxazino[2,3,4-ij]quinazolin-5(3H)-one] | 91.6 |
| C=CC(=O)N1C[C@H](C)N(c2nc(=O)n3c4c(c(-c5ccc(F)cc5F)c(Cl)cc24)OC[C@H]3COC[C@H]2CCCN2C)C[C@H]1C [Example 287, (3R)-7-((2S,5R)-4-acryloyl-2,5-dimethylpiperazin-1-yl)-9-chloro-10-(2,4-difluorophenyl)-3-((((R)-1-methylpyrrolidin-2-yl)methoxy)methyl)-2H-[1,4]oxazino[2,3,4-ij]quinazolin-5(3H)-one] | 91.6 |
| C=CC(=O)N1C[C@H](C)N(c2nc(=O)n3c4c(c(-c5ccc(F)cc5F)c(Cl)cc24)OC[C@H]3CC2CCN(C)CC2)C[C@H]1C [Example 288, (3R)-7-((2S,5R)-4-acryloyl-2,5-dimethylpiperazin-1-yl)-9-chloro-10-(2,4-difluorophenyl)-3-((1-methylpiperidin-4-yl)methyl)-2H-[1,4]oxazino[2,3,4-ij]quinazolin-5(3H)-one] | 95.9 |
